Values after ≈ are worked out from the molar mass of the structure shown. Read-outs that look alike come from different tables or passages of the source.
Legend:
Type in all cases: cell-based
[1] = tested on: Trichophyton interdigitale; assay: Antifungal Activity MIC (in medicinal field); conditions: read-out: Minimal Inhibitory Concentration (MIC)
[2] = tested on: Aspergillus fumigatus Saito; assay: Antifungal Activity MIC (in medicinal field); conditions: read-out: Minimal Inhibitory Concentration (MIC)
[3] = tested on: Cryptococcus neoformans Cr-1; assay: Antifungal Activity MIC (in medicinal field); conditions: CR1, read-out: Minimal Inhibitory Concentration (MIC)
Candida albicans GA-24 = assay: Antifungal Activity MIC (in medicinal field); conditions: GA24, read-out: Minimal Inhibitory Concentration (MIC)
[4] = tested on: Trichophyton metagrophytes 530324; assay: Antifungal Activity MIC (in medicinal field); conditions: read-out: Minimal Inhibitory Concentration (MIC)
[5] = tested on: Serratia marcescens MB-3848; assay: Minimal Inhibitory Concentration Method
Salmonella typhi 0-901-W = assay: Minimal Inhibitory Concentration Method; conditions: Salmonella enterica, read-out: Minimal Inhibitory Conc.
[6] = tested on: Pseudomonas cepacia M-0527; assay: Minimal Inhibitory Concentration Method; conditions: Burkholderia cepacia, M0527, read-out: Minimal Inhibitory Conc.
Proteus vulgaris OX-19 = assay: Minimal Inhibitory Concentration Method
[7] = tested on: Staphylococcus epidermidis ATCC 14990; assay: Minimal Inhibitory Concentration Method; conditions: ATCC14990, read-out: Minimal Inhibitory Conc.
[8] = tested on: Staphylococcus aureus 209P JC-1; assay: Minimal Inhibitory Concentration Method; conditions: Staphylococcus aureus 209P JC-1; read-out: Minimal Inhibitory Conc.
Shigella dysenteriae = assay: Minimal Inhibitory Concentration Method; conditions: read-out: Minimal Inhibitory Conc.
[9] = tested on: Bacillus subtilis ATCC 6633; assay: Minimal Inhibitory Concentration Method; conditions: ATCC6633, read-out: Minimal Inhibitory Conc.
Escherichia coli No. 29 = assay: Minimal Inhibitory Concentration Method; conditions: read-out: Minimal Inhibitory Conc.
[10] = MB3848, Serratia marcescens MB-3848, read-out: Minimal Inhibitory Conc.
[11] = OX19, Proteus vulgaris OX-19, read-out: Minimal Inhibitory Conc.

| MIC [1] | MIC [2] | MIC [3] | MIC (Candida albicans GA-24) | MIC [4] | SMILES | MIC [5, 10] | MIC (Salmonella typhi 0-901-W) | MIC [6] | MIC (Proteus vulgaris OX-19; Proteus vulgaris, OX19, read-out: Minimal Inhibitory Conc.) | MIC [7] | MIC [8] | MIC (Shigella dysenteriae) | MIC [9] | MIC (Escherichia coli No. 29) | MIC ([5]; Serratia marcescens, MB3848, read-out: Minimal Inhibitory Conc.) | MIC (Proteus vulgaris OX-19; [11]) |
| --- | --- | --- | --- | --- | --- | --- | --- | --- | --- | --- | --- | --- | --- | --- | --- | --- |
| 0.39 µg/mL (≈ 1.1 µM) | 6.25 µg/mL (≈ 17.6 µM) | 3.13 µg/mL (≈ 8.81 µM) | 25 µg/mL (≈ 70.4 µM) | < 0.04 µg/mL | O=[N+]([O-])c1ccc(-c2nnn(CC#CI)n2)cc1 [Compound No. 37, 2-(1'-iodopropyn-3'-yl)-5-(p-nitrophenyl)tetrazole] | – | – | – | – | – | – | – | – | – | – | – |
| 0.78 µg/mL (≈ 1.33 µM) | 6.25 µg/mL (≈ 10.7 µM) | 6.25 µg/mL (≈ 10.7 µM) | 6.25 µg/mL (≈ 10.7 µM) | 0.78 µg/mL (≈ 1.33 µM) | CCCCCCCc1nnn(CC(I)=C(I)I)n1 [Compound No. 40, 2-(2',3',3'-triiodoallyl)-5-n-heptyltetrazole] | – | – | – | – | – | – | – | – | – | – | – |
| ≤ 0.05 µg/mL | 3.13 µg/mL (≈ 5.34 µM) | 100 µg/mL (≈ 171 µM) | > 100 µg/mL | 0.78 µg/mL (≈ 1.33 µM) | CCCCCCCc1nnnn1CC(I)=C(I)I [Compound No. 41, 1-(2',3',3'-triiodoallyl)-5-n-heptyltetrazole] | – | – | – | – | – | – | – | – | – | – | – |
| 0.19 µg/mL (≈ 0.341 µM) | 0.78 µg/mL (≈ 1.4 µM) | 0.78 µg/mL (≈ 1.4 µM) | 3.13 µg/mL (≈ 5.61 µM) | 0.09 µg/mL (≈ 0.161 µM) | CCCCCc1nnn(CC(I)=C(I)I)n1 [Compound No. 42, 2-(2',3',3'-triiodoallyl)-5-n-pentyltetrazole] | – | – | – | – | – | – | – | – | – | – | – |
| ≤ 0.05 µg/mL | 0.39 µg/mL (≈ 0.699 µM) | 50 µg/mL (≈ 89.6 µM) | 12.5 µg/mL (≈ 22.4 µM) | 0.09 µg/mL (≈ 0.161 µM) | CCCCCc1nnnn1CC(I)=C(I)I [Compound No. 43, 1-(2',3',3'-triiodoallyl)-5-n-pentyltetrazole] | – | – | – | – | – | – | – | – | – | – | – |
| 0.39 µg/mL (≈ 0.717 µM) | 6.25 µg/mL (≈ 11.5 µM) | 50 µg/mL (≈ 91.9 µM) | 50 µg/mL (≈ 91.9 µM) | 0.39 µg/mL (≈ 0.717 µM) | CC(C)(C)c1nnn(CC(I)=C(I)I)n1 [Compound No. 44, 2-(2',3',3'-triiodoallyl)-5-tert.-butyltetrazole] | – | – | – | – | – | – | – | – | – | – | – |
| – | – | – | – | – | CC(C)(C)c1nnnn1CC(I)=C(I)I [Compound No. 45, 1-(2',3',3'-triiodoallyl)-5-tert.-butyltetrazole] | 12.5 µg/mL (≈ 23 µM) | 50 µg/mL (≈ 91.9 µM) | 12.5 µg/mL (≈ 23 µM) | 3.13 µg/mL (≈ 5.75 µM) | 0.2 µg/mL (≈ 0.368 µM) | 0.78 µg/mL (≈ 1.43 µM) | 3.13 µg/mL (≈ 5.75 µM) | 0.78 µg/mL (≈ 1.43 µM) | 6.25 µg/mL (≈ 11.5 µM) | – | – |
| 0.09 µg/mL (≈ 0.17 µM) | 0.39 µg/mL (≈ 0.736 µM) | 0.78 µg/mL (≈ 1.47 µM) | 1.56 µg/mL (≈ 2.94 µM) | ≤ 0.05 µg/mL | CCCc1nnn(CC(I)=C(I)I)n1 [Compound No. 46, 2-(2',3',3'-triiodoallyl)-5-n-propyltetrazole] | – | – | – | – | – | – | – | – | – | – | – |
| 0.09 µg/mL (≈ 0.17 µM) | 0.78 µg/mL (≈ 1.47 µM) | 6.25 µg/mL (≈ 11.8 µM) | 6.25 µg/mL (≈ 11.8 µM) | ≤ 0.05 µg/mL | CCCc1nnnn1CC(I)=C(I)I [Compound No. 47, 1-(2',3',3'-triiodoallyl)-5-n-propyltetrazole] | – | – | – | – | – | – | – | – | – | – | – |
| 1.56 µg/mL (≈ 2.94 µM) | 12.5 µg/mL (≈ 23.6 µM) | 6.25 µg/mL (≈ 11.8 µM) | 12.5 µg/mL (≈ 23.6 µM) | 6.25 µg/mL (≈ 11.8 µM) | CC(C)c1nnnn1CC(I)=C(I)I [Compound No. 49, 1-(2',3',3'-triiodoallyl)-5-isopropyltetrazole] | – | – | – | – | – | – | – | – | – | – | – |
| – | – | – | – | – | IC(I)=C(I)Cn1nnnc1Cc1ccccc1 [Compound No. 59, 1-(2',3',3'-triiodoallyl)-5-benzyltetrazole] | 3.13 µg/mL (≈ 5.42 µM) | 12.5 µg/mL (≈ 21.6 µM) | 3.13 µg/mL (≈ 5.42 µM) | – | 0.2 µg/mL (≈ 0.346 µM) | 1.56 µg/mL (≈ 2.7 µM) | 0.39 µg/mL (≈ 0.675 µM) | 1.56 µg/mL (≈ 2.7 µM) | 0.78 µg/mL (≈ 1.35 µM) | – | 1.56 µg/mL (≈ 2.7 µM) |

| SMILES | MIC [1] | MIC [2] | MIC [3] | MIC (Candida albicans GA-24) | MIC [4] | MIC [5, 10] | MIC (Salmonella typhi 0-901-W) | MIC [6] | MIC (Proteus vulgaris OX-19; Proteus vulgaris, OX19, read-out: Minimal Inhibitory Conc.) | MIC [7] | MIC [8] | MIC (Shigella dysenteriae) | MIC [9] | MIC (Escherichia coli No. 29) | MIC ([5]; Serratia marcescens, MB3848, read-out: Minimal Inhibitory Conc.) | MIC (Proteus vulgaris OX-19; [11]) |
| --- | --- | --- | --- | --- | --- | --- | --- | --- | --- | --- | --- | --- | --- | --- | --- | --- |
| CC(C)c1nnn(CC(I)=C(I)I)n1 [Compound No. 48, 2-(2',3',3'-triiodoallyl)-5-isopropyltetrazole] | 0.78 µg/mL (≈ 1.47 µM) | 3.13 µg/mL (≈ 5.91 µM) | 12.5 µg/mL (≈ 23.6 µM) | 12.5 µg/mL (≈ 23.6 µM) | 0.78 µg/mL (≈ 1.47 µM) | – | 12.5 µg/mL (≈ 23.6 µM) | 6.25 µg/mL (≈ 11.8 µM) | – | 0.39 µg/mL (≈ 0.736 µM) | 1.56 µg/mL (≈ 2.94 µM) | 3.13 µg/mL (≈ 5.91 µM) | 0.39 µg/mL (≈ 0.736 µM) | 6.25 µg/mL (≈ 11.8 µM) | 12.5 µg/mL (≈ 23.6 µM) | 6.25 µg/mL (≈ 11.8 µM) |

Source: patent US4647572A, “Iodoallyl and iodopropargyl substituted tetrazoles and anti-microbial compositions thereof” (Meiji Seika Kaisha, Ltd., priority 1982, dated 1987)
